Source: article PMC6219668 (Oncotarget, 2018)

System: panel of nearly 500 cancer cell lines
Experiment: Cancer Cell Line Encyclopedia profiling, 3-day CellTiter-Glo
Format: cell-based
Parameters: Amax: unit not given here

CN(C)C(=O)c1cc2cnc(Nc3ccc(N4CCNCC4)cn3)nc2n1C1CCCC1 [Ribociclib, 7-cyclopentyl-2-(5-piperazin-1-yl-pyridin-2-ylamino)-7H-pyrrolo[2,3-d]pyrimidine-6-carboxylic acid dimethylamide]
EC50 (Homo sapiens, TCC-SUP): > 8 µM
IC50 (Homo sapiens, TCC-SUP): > 8 µM
EC50 (Homo sapiens, TE-11): 2.09 µM
IC50 (Homo sapiens, TE-11): > 8 µM
EC50 (Homo sapiens, TE-15): 1.23 µM
IC50 (Homo sapiens, TE-15): > 8 µM
EC50 (Homo sapiens, TOV21G): 1.23 µM
IC50 (Homo sapiens, TOV21G): > 8 µM
EC50 (Homo sapiens, TOV112D): 0.995 µM
IC50 (Homo sapiens, TOV112D): > 8 µM
EC50 (Homo sapiens, Toledo): 1.52 µM
IC50 (Homo sapiens, Toledo): > 8 µM
EC50 (Homo sapiens, U2OS): 2.09 µM
IC50 (Homo sapiens, U2OS): > 8 µM
EC50 (Homo sapiens, U-87 MG): > 8 µM
IC50 (Homo sapiens, U-87 MG): > 8 µM
EC50 (Homo sapiens, U-118-MG): 2.68 µM
IC50 (Homo sapiens, U-118-MG): > 8 µM
EC50 (Homo sapiens, U-937): 1.74 µM
IC50 (Homo sapiens, U-937): 3.52 µM
EC50 (Homo sapiens, UACC-62): 1.62 µM
IC50 (Homo sapiens, UACC-62): > 8 µM
EC50 (Homo sapiens, UACC-257): 0.577 µM
IC50 (Homo sapiens, UACC-257): > 8 µM
EC50 (Homo sapiens, UACC-812): > 8 µM
IC50 (Homo sapiens, UACC-812): > 8 µM
EC50 (Homo sapiens, UMUC3): > 8 µM
IC50 (Homo sapiens, UMUC3): > 8 µM
EC50 (Homo sapiens, WM 266-4): 0.946 µM
IC50 (Homo sapiens, WM 266-4): > 8 µM
EC50 (Homo sapiens, WM793): > 8 µM
IC50 (Homo sapiens, WM793): > 8 µM
EC50 (Homo sapiens, WM-115): > 8 µM
IC50 (Homo sapiens, WM-115): > 8 µM
EC50 (Homo sapiens, YKG-1): > 8 µM
IC50 (Homo sapiens, YKG-1): > 8 µM
EC50 (Homo sapiens, ZR-75-1): > 8 µM
IC50 (Homo sapiens, ZR-75-1): > 8 µM
EC50 (Homo sapiens, ZR-75-30): > 8 µM
IC50 (Homo sapiens, ZR-75-30): > 8 µM
EC50 (Hs766T): > 8 µM
IC50 (Hs766T): > 8 µM
EC50 (IGR-39): > 8 µM
IC50 (IGR-39): > 8 µM
EC50 (JHH7): 1.83 µM
IC50 (JHH7): > 8 µM
EC50 (JHH-2): 7.93 µM
IC50 (JHH-2): > 8 µM
EC50 (JHH-4): 2.24 µM
IC50 (JHH-4): > 8 µM
EC50 (JMSU-1): > 8 µM
IC50 (JMSU-1): > 8 µM
EC50 (KE-97): 3.81 µM
IC50 (KE-97): 4.53 µM
EC50 (KHM-1B): 0.34 µM
IC50 (KHM-1B): > 8 µM
IC50 (KMM-1): 4.23 µM
EC50 (KMRC-1): 0.907 µM
IC50 (KMRC-1): > 8 µM
EC50 (KMS-26): 3.37 µM
IC50 (KMS-26): 2.53 µM
EC50 (Karpas-620): 0.0773 µM
IC50 (Karpas-620): > 8 µM
EC50 (Kelly): 6.64 µM
IC50 (Kelly): 6.64 µM
EC50 (LOU-NH91): > 8 µM
IC50 (LOU-NH91): > 8 µM
EC50 (LUDLU-1): 0.0154 µM
IC50 (LUDLU-1): > 8 µM
EC50 (Mono-Mac-1): 0.704 µM
IC50 (Mono-Mac-1): 3.22 µM
EC50 (NCI-H322): > 8 µM
IC50 (NCI-H322): > 8 µM
EC50 (NCI-H1339): > 8 µM
IC50 (NCI-H1339): > 8 µM
EC50 (NCI-H1568): > 8 µM
IC50 (NCI-H1568): > 8 µM
EC50 (NCI-H1915): > 8 µM
IC50 (NCI-H1915): > 8 µM
EC50 (NCI-H2023): 0.0698 µM
IC50 (NCI-H2023): > 8 µM
EC50 (NCI-H2172): > 8 µM
IC50 (NCI-H2172): > 8 µM
EC50 (OCUM1): > 8 µM
IC50 (OCUM1): > 8 µM
EC50 (OE21): > 8 µM
IC50 (OE21): 4.52 µM
EC50 (ONCO-DG-1): > 8 µM
IC50 (ONCO-DG-1): > 8 µM
EC50 (PK-59): > 8 µM
IC50 (PK-59): > 8 µM
EC50 (PL45): 0.0975 µM
IC50 (PL45): > 8 µM
EC50 (PaTu 8902): > 8 µM
IC50 (PaTu 8902): > 8 µM
EC50 (QGP-1): 0.309 µM
IC50 (QGP-1): 2.33 µM
EC50 (SH-10-TC): > 8 µM
IC50 (SH-10-TC): > 8 µM
EC50 (SUIT-2): 1.62 µM
IC50 (SUIT-2): 7.97 µM
EC50 (SW579): 0.929 µM
IC50 (SW579): > 8 µM
EC50 (SW1271): 2.54 µM
IC50 (SW1271): > 8 µM
EC50 (TC-71): > 8 µM
IC50 (TC-71): > 8 µM
EC50 (WM983B): 0.114 µM
IC50 (WM983B): 0.327 µM
EC50 (WM-1799): 0.202 µM
IC50 (WM-1799): > 8 µM
Amax (a172 (central_nervous_system)): -18.6367
Amax (a204 (soft_tissue)): -24.3309
Amax (a253 (salivary_gland)): 9.763
Amax (a2058 (skin)): 0.435
Amax (g402 (soft_tissue)): -59.1579
Amax (gamg (central_nervous_system)): -4.349
Amax (gb1 (central_nervous_system)): -5.547
Amax (gciy (stomach)): -6.8217
Amax (gct (soft_tissue)): -35.032
Amax (gi1 (central_nervous_system)): 1.537
Amax (glc82 (lung)): 6.841
Amax (gms10 (central_nervous_system)): 6.4331
Amax (granta519 (haematopoietic_and_lymphoid_tissue)): -7.882
Amax (h4 (central_nervous_system)): -7.315
Amax (hara (lung)): -39.5316
Amax (hcc15 (lung)): 11.5352
Amax (hcc44 (lung)): -21.2383
Amax (hcc56 (large_intestine)): -7.243
Amax (hcc70 (breast)): 9.331
Amax (hcc78 (lung)): 8.5798
Amax (hcc827 (lung)): 5.053
Amax (hcc1187 (breast)): -1.8256
Amax (hcc1395 (breast)): 4.555
Amax (hcc1569 (breast)): -4.171
Amax (hcc1806 (breast)): -2.407
Amax (hcc1954 (breast)): 5.4786
Amax (hcc2935 (lung)): 3.035
Amax (hcc4006 (lung)): -45.676
Amax (hct15 (large_intestine)): -18.4329
Amax (hct116 (large_intestine)): -41.8056
Amax (hdmyz (haematopoietic_and_lymphoid_tissue)): -70.2074
Amax (hdqp1 (breast)): -11.6831
Amax (hec1a (endometrium)): -0.2935
Amax (hec1b (endometrium)): -44.265
Amax (hec6 (endometrium)): 9.745
Amax (hec59 (endometrium)): -17.0499
Amax (hec151 (endometrium)): 0.04545
Amax (hec251 (endometrium)): 3.202
Amax (hec265 (endometrium)): 6.223
Amax (hel9217 (haematopoietic_and_lymphoid_tissue)): 0.4869
Amax (hep3b217 (liver)): 2.738
Amax (hepg2 (liver)): -37.2895
Amax (heya8 (ovary)): -44.7632
Amax (hgc27 (stomach)): -65.8757
Amax (hh (haematopoietic_and_lymphoid_tissue)): -3.613
Amax (hle (liver)): -18.5726
Amax (hlf (liver)): 6.292
Amax (hmc18 (breast)): -31.7315
Amax (hmcb (skin)): -41.1129
Amax (hos (bone)): -0.8851
Amax (hpac (pancreas)): -55.1912
Amax (hpafii (pancreas)): -3.9084
Amax (hs229t (lung)): -28.1577
Amax (hs294t (skin)): -32.1941
Amax (hs578t (breast)): -21.2687
Amax (hs695t (skin)): -3.506
Amax (hs729 (soft_tissue)): 10.8537
Amax (hs739t (breast)): -26.62
Amax (hs746t (stomach)): -37.6649
Amax (hs766t (pancreas)): -32.0513
Amax (hs840t (upper_aerodigestive_tract)): -29.2379
Amax (hs852t (skin)): -6.059
Amax (hs936t (skin)): -38.0651
Amax (hs939t (skin)): -14.4612
Amax (hsc2 (upper_aerodigestive_tract)): 0.4805
Amax (ht29 (large_intestine)): -56.1634
Amax (ht144 (skin)): -18.5925
Amax (ht1080 (soft_tissue)): -36.8044
Amax (ht1197 (urinary_tract)): -10.59
Amax (ht1376 (urinary_tract)): 7.547
Amax (ht (haematopoietic_and_lymphoid_tissue)): 8.223
Amax (hucct1 (biliary_tract)): 1.7282
Amax (huh1 (liver)): -43.6531
Amax (hupt3 (pancreas)): -32.6303
Amax (hupt4 (pancreas)): -52.4819
Amax (hut78 (haematopoietic_and_lymphoid_tissue)): 8.299
Amax (ialm (lung)): 0.7254
Amax (igr37 (skin)): -22.1572
Amax (igr39 (skin)): 0.9211
Amax (igrov1 (ovary)): -1.9772
Amax (im95 (stomach)): -0.7889
Amax (imr32 (autonomic_ganglia)): -55.0108
Amax (ipc298 (skin)): -16.0715
Amax (ishikawaheraklio02er (endometrium)): 0.9691
Amax (istmes1 (pleura)): -35.2757
Amax (istmes2 (pleura)): -42.1214
Amax (j82 (urinary_tract)): -0.8954
Amax (jhh2 (liver)): -16.2272
Amax (jhh4 (liver)): -26.3135
Amax (jhh5 (liver)): -74.5916
Amax (jhh6 (liver)): 4.949
Amax (jhh7 (liver)): -42.8596
Amax (jhos2 (ovary)): 12.8505
Amax (jhos4 (ovary)): 4.354
Amax (jhuem2 (endometrium)): -27.6126
